Paper PMC12908707, “Pharmacodynamic effects and plasma pharmacokinetics of N, N-dimethyltryptamine after intranasal versus subcutaneous administration in male rats” (Psychopharmacology, 2025)
Read-outs that look alike come from different tables or passages of the source.

Key:
[1] = Plasma pharmacokinetics of DMT and DMT N-oxide after IN or SC DMT (LC-QQQ-MS, non-compartmental analysis); type: in vivo, male Sprague-Dawley rats; conditions: for AUC / Tmax / Cmax / half-life: male, Sprague-Dawley, rat, plasma DMT; for Cmax / half-life: plasma
Experimental: For the IN DMT experiments, blood samples (300 µL) were withdrawn via IV catheters immediately before (time zero) and at 5, 10, 20, 40, and 80 min after injection. For the SC DMT experiments, blood samples were withdrawn immediately before (time zero) and at 10, 20, 40, 80, and 160 min after injection. Samples were collected into 1 mL tuberculin syringes and transferred to 1.5 mL plastic tubes containing 5 µL of 1000 IU/mL heparin (Thomas Scientific) as an anticoagulant and 5 µL of 250 mM sodium metabisulfite as a preservative. Blood was centrifuged at 1000 g for 10 min at 4 °C. Plasma was decanted into cryovials and stored at − 80 °C until analysis. To maintain volume and osmotic homeostasis, rats received an equal volume of saline solution via the IV catheter after each blood withdrawal.
Samples were extracted using a basic solid phase extraction (SPE) procedure. Spiking solutions (final concentrations 0.1, 1.0 and 10 ng/µL) contained all analytes and were prepared by serial dilution in methanol from stock solutions. Calibration curves contained eight non-zero calibrators from 5 to 1000 ng/mL. Quality controls were assessed at 15, 60, 150, and 800 ng/mL. DMT-D4 (25 µL, 1.0 ng/µL) was utilized as the internal standard. Authentic rat plasma samples were stored at −80 °C prior to analysis.
Drug-free rat plasma was fortified with appropriate spiking solutions and aliquoted (150 µL) for extraction. Authentic rat plasma was assayed at 150 µL. Internal standard was added at a final concentration of 125 ng/mL. Samples were diluted with 1 mL phosphate buffer (0.1 M, pH 6) followed by centrifugation for 5 min at 4200 rpm, then extracted using Chromabond® SPE cartridges (200 mg, 3 mL)(Macherey-Nagel, Allentown, PA, USA). The columns were conditioned using methanol (2 mL), deionized water (2 mL), and phosphate buffer (0.1 M, pH 6, 2 mL). The buffered sample was added to the columns and impurities were removed using deionized water (1 mL), acetic acid (0.1 M, 1 mL), and methanol (1 mL). Analytes were eluted using 3 mL of dichloromethane: isopropanol: ammonia (78:20:2, v: v:v). The organic solvent was evaporated to dryness under nitrogen at 33 °C. Samples were reconstituted in 100 µL of initial mobile phase conditions (90 A:10B).

rats [2] = tested on: rats; design: method as in Baumann and Rothman [1996]; Elmore et al. [2018]; conditions: SC, dose-related increases, ref Baumann and Rothman [1996], Elmore et al. [2018]; cited from earlier work
male Sprague-Dawley rats [3] = assay: Behavioral scoring: wet dog shakes (proxy for 5-HT2A activation); type: in vivo; conditions: SC, 1 and 3 mg/kg
male Sprague-Dawley rats [4] = assay: Behavioral scoring: motor activity (summed motor scores); type: in vivo; conditions: IN or SC, 1, 3, 10 mg/kg; Dunnett's post hoc test
male Sprague-Dawley rats [5] = assay: Core body temperature by SC temperature transponder
male Sprague-Dawley rats [6] = assay: Behavioral scoring: flat body posture (element of the 5-HT syndrome); type: in vivo
rats [7] = tested on: rats; design: method as in Lucki et al. ([1984]); conditions: intraperitoneal (IP), ref Lucki et al. ([1984]); cited from earlier work
male and female rats = tested on: male and female rats; design: method as in Tylš et al. [2016]; conditions: SC, ref Tylš et al. [2016]; cited from earlier work
[8] = inhaled or intranasal, 1 mg/kg IN, mean ± SEM, n = 5 rats
[9] = inhaled or intranasal, 3 mg/kg IN, mean ± SEM, n = 5 rats
[10] = inhaled or intranasal, 10 mg/kg IN, mean ± SEM, n = 5 rats
[11] = 1 mg/kg SC, mean ± SEM, n = 5 rats
[12] = 3 mg/kg SC, mean ± SEM, n = 5 rats
[13] = 10 mg/kg SC, mean ± SEM, n = 5 rats

Q: For `C[N+](C)([O-])CCc1c[nH]c2ccccc12` [DMT N-oxide], which “plasma concentrations of DMT N-oxide by 80 min post-treatment” value ([1]; after all doses of IN DMT) is on record?
A: Its value is “either undetectable or very low”.

Q: Which wet dog shakes (rats [2]) does the source give for `COc1cc(CCN)c(OC)cc1I` [2 C-I, 2-(4-iodo-2,5-dimethoxyphenyl)ethanamine] here?
A: The wet dog shakes was “more than ten episodes per hour”.

Q: What does the source list for `CN(C)CCc1c[nH]c2ccccc12` [DMT, N,N-dimethyltryptamine]?
A: wet dog shakes vs vehicle (male Sprague-Dawley rats [3]): increased compared to vehicle; summed motor scores vs vehicle controls (male Sprague-Dawley rats [4]): no significant differences; predicted AUC ([1]; 10 mg/kg IN, ~3.3-times the measured AUC at 3 mg/kg): 2950 ng·min/mL; plasma concentrations of DMT by 80 min post-treatment ([1]; after all doses of IN DMT): below the LOD, or nearly so; AUC [1, 8]: 6.08 ng·h/mL; Tmax [1, 8]: 5 min; AUC [1, 9]: 14.9 ng·h/mL; Tmax [1, 9]: 6 min; AUC [1, 10]: 93.8 ng·h/mL; Tmax [1, 10]: 7 min; Cmax ([1]; inhaled or intranasal, 1 mg/kg, 1 mg/kg IN, mean ± SEM, n = 5 rats, read-out: Cmax): 30.1 ± 7.6 ng/mL; half-life ([1]; inhaled or intranasal, 1 mg/kg, 1 mg/kg IN, mean ± SEM, n = 5 rats, read-out: t1/2): 12.9 ± 2.8 min; Cmax ([1]; inhaled or intranasal, 3 mg/kg, 3 mg/kg IN, mean ± SEM, n = 5 rats, read-out: Cmax): 55.6 ± 15.4 ng/mL; half-life ([1]; inhaled or intranasal, 3 mg/kg, 3 mg/kg IN, mean ± SEM, n = 5 rats, read-out: t1/2): 14.3 ± 1.9 min; Cmax ([1]; inhaled or intranasal, 10 mg/kg, 10 mg/kg IN, mean ± SEM, n = 5 rats, read-out: Cmax): 268 ± 50.7 ng/mL; half-life ([1]; inhaled or intranasal, 10 mg/kg, 10 mg/kg IN, mean ± SEM, n = 5 rats, read-out: t1/2): 11.9 ± 1.4 min; Cmax ([1]; other: IN (intranasal, infused into the nares), 3 mg/kg, low IN doses (1 and 3 mg/kg), read-out: maximal DMT concentrations (Cmax) after low IN doses): 30.2 to 55.6 ng/mL; half-life ([1]; other: IN (intranasal, infused into the nares), 10 mg/kg, IN route, across 1, 3 and 10 mg/kg, read-out: t1/2 range): 11.9 to 14.3 min; Cmax ([1]; sc, 1 mg/kg, 1 mg/kg SC, mean ± SEM, n = 5 rats, read-out: Cmax): 19.6 ± 2.2 ng/mL; half-life ([1]; sc, 1 mg/kg, 1 mg/kg SC, mean ± SEM, n = 5 rats, read-out: t1/2): 45.5 ± 9.5 min; Cmax ([1]; sc, 3 mg/kg, 3 mg/kg SC, mean ± SEM, n = 5 rats, read-out: Cmax): 35.8 ± 2.4 ng/mL; half-life ([1]; sc, 3 mg/kg, 3 mg/kg SC, mean ± SEM, n = 5 rats, read-out: t1/2): 91.7 ± 26.4 min; Cmax ([1]; sc, 10 mg/kg, 10 mg/kg SC, mean ± SEM, n = 5 rats, read-out: Cmax): 81.6 ± 11.1 ng/mL; half-life ([1]; sc, 10 mg/kg, 10 mg/kg SC, mean ± SEM, n = 5 rats, read-out: t1/2): 123 ± 36.4 min; half-life ([1]; sc, 10 mg/kg, SC route, across 1, 3 and 10 mg/kg, read-out: t1/2 range): 45.5 to 123 min; AUC [1, 11]: 16.4 ng·h/mL; Tmax [1, 11]: 14 min; AUC [1, 12]: 47.7 ng·h/mL; Tmax [1, 12]: 22 min; AUC [1, 13]: 158 ng·h/mL; Tmax [1, 13]: 64 min; body temperature nadir (hypothermic effect) (male Sprague-Dawley rats [5]; 10 mg/kg IN, sustained throughout the sampling period (80 min)): 34.4 °C; body temperature nadir (hypothermic effect) (male Sprague-Dawley rats [5]; 10 mg/kg SC, subsided by end of sampling period (160 min)): 34.2 °C; body temperature vs saline controls (male Sprague-Dawley rats [5]; IN, all doses, by 20 min post-treatment): significantly reduced temperature; flat body posture vs vehicle (male Sprague-Dawley rats [6]; IN, 3 and 10 mg/kg): increased above vehicle; flat body posture vs vehicle (male Sprague-Dawley rats [6]; SC, only at 10 mg/kg): increased

Q: Which 5-HT behavioral syndrome (rats [7]) does the source give for `COc1ccc2[nH]cc(CCN(C)C)c2c1` [5-MeO-DMT, 5-methoxy-N, N-dimethyltryptamine] here?
A: The 5-HT behavioral syndrome was “produces the 5-HT behavioral syndrome”.

Q: For `COc1cc(CC(C)N)c(OC)cc1I` (centres unmarked) [DOI, 1-(4-iodo-2,5-dimethoxyphenyl)propan-2-amine], which wet dog shakes (rats [2]) is on record?
A: The wet dog shakes was “more than ten episodes per hour”.

Q: For `CN(C)CCc1c[nH]c2cccc(O)c12` [psilocin, 4-hydroxy-N, N-dimethyltryptamine], which flat body posture (male and female rats) is on record?
A: The flat body posture was “causes flat body posture”.
